This test concerns the target T1, Glucocorticoid Receptor (Homo sapiens, UniProt P04150).
T1 construct: expressed in transfected cells
T1 sequence (P04150 524-758 limits assumed): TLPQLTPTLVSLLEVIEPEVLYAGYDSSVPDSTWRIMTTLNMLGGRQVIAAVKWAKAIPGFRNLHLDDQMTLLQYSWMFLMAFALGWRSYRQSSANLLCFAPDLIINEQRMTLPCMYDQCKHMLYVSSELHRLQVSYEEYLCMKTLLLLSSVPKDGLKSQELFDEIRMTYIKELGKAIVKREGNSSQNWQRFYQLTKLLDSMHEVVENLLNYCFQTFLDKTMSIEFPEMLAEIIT
The test is described as follows: Agonistic mode of action on the glucocorticoid receptor (CHO-Gal4/GR luciferase reporter cell line). In kind it is cell-based. As to conditions: CHO-Gal4/GR luciferase reporter cells; observed in the agonistic assay or the antagonistic assay (mode not given); read-out: IC50 or EC50 range. The text has this: Potential selective glucocorticoid receptor modulators of this intervention can be tested for modulation of the activity of the glucocorticoid receptor using cell-based assays. These assays involve a Chinese hamster ovary (CHO) cell line which contains fragments of the glucocorticoid receptor as well as fusion proteins. The glucocorticoid receptor fragments used are capable of binding the ligand (e.g. beclomethasone) to identify molecules that compete for binding with glucocorticoid receptor ligands. In more detail, the glucocorticoid receptor ligand binding domain is fused to the DNA binding domain (DBD) of the transcriptionfactor GAL4 (GAL4 DBD-GR) and is stably integrated into a CHO cell line containing a GAL4-UAS-Luciferase reporter construct. […] After cell lysis the luminescence that is produced by luciferase after addition of the substrate is detected and EC50 or IC50 values can be calculated. Engagement of molecules which induce gene expression via glucocortocoid receptor binding to the DNA leads to expression of the luciferase gene under the control of the fusion protein GAL4 DBD-GR and therefore to a dose-dependent increase of the luminescence signal. Binding of molecules which repress beclomethasone-induced gene expression of the luciferase gene under the control of the fusion protein GAL4 DBD-GR leads to a dose-dependent reduction of the luminescence signal.
The reporter cell line CHO-Gal4/GR consisted of a chinese hamster ovary (CHO) cell line (Leibniz Institute DSMZ—German Collection of Microorganisms and Cell Cultures GmbH: ACC-110) containing a firefly luciferase gene under the control of the GR ligand binding domain fused to the DNA binding domain (DBD) of GAL4 (GAL4 DBD-GR) stably integrated into CHO cells. This cell line was established by stable transfection of CHO cells with a GAL4-UAS-Luciferase reporter construct. In a subsequent step the ligand binding domain of the GR cloned into pIRES2-EGFP-GAL4 containing the DNA binding domain of GAL4 from pFA-AT2 was transfected. This fusion construct activated firefly luciferase expression under the control of a multimerized GAL4 upstream activation sequence (UAS). The signal of the emitted luminescence was recorded by the FLIPR^TETRA. This allowed for specific detection of ligand-induced activation of the GR and therefore for the identification of compounds with agonistic properties. The GAL4/UAS reporter was premixed with a vector that constitutively expressed Renilla luciferase, which served as an internal positive control for transfection efficiency.
The complete culture medium for the assay was: • DMEM F-12 (1:1) MIXTURE (LONZA cat. No: BE04-687F/U1) 500 mL • 5 mL of 100 mM Sodium Pyruvate (LONZA cat. No: BE12-115E) • 25 mL of 7.5% Sodium Bicarbonate (LONZA cat. No BE17-613E) • 6.5 mL of 1 M Hepes (LONZA cat. No: BE17-737E) • 5 mL of 100× Penicillin/Streptomycin (LONZA cat. No DE17-602E) • 50 mL of Fetal Bovine Serum (Euroclone cat. No ECS 0180L) • 0.25 mL of 10 mg/mL Puromycin (InvivoGen cat.: ant-pr-1) • 0.5 mL of 100 mg/mL Zeocin (InvivoGen cat.: ant-zn-1)
Cryo-preserved CHO-Gal4/GR cells were suspended in complete medium and 5000 cells/25 μl/well were seeded into the wells of 384-well polystyrene assay plates (Thermo Scientific, cat. #4332) and cultured at 37° C., 5% CO2 and 95% humidity. After 24 hours growth medium was carefully removed and replaced by 30111 Opti-MEM (GIBCO, cat. #31985062) as assay buffer. To test the compounds an 8-point half-log compound dilution curve was generated in 100% DMSO starting from a 2 mM stock and compounds were then diluted 1:50 in Opti-MEM. 10111 of compounds were then added to the wells containing 30 μl Opti-MEM resulting in a final assay concentration range from 10 μM to 0.003 μM in 0.5% DMSO. Compounds were tested at 8 concentrations in quadruplicate data points. […] Finally, cells were lysed with 20 μl of Triton/Luciferin solution and the signal of the emitted luminescence was recorded at the FLIPR^TETRA for 2 minutes. […]

With `Cc1c(-c2cccc3c2ccn3S(=O)(=O)C2CC2)cc(F)c2c1-n1c(C)nnc1C(C)(C)N2` [Example 391, 8-[1-(Cyclopropylsulfonyl)-1H-indol-4-yl]-6-fluoro-1,4,4,9-tetramethyl-5H-[1,2,4]triazolo[4,3-a]quinoxaline], the IC50 or EC50 (antagonist or agonist mode, not stated per compound) is below 100 nM.
In the case of `Cc1nnc2n1-c1c(c(F)c(F)c(-c3cc(F)cc4c3cnn4S(C)(=O)=O)c1C(F)(F)F)NC2(C)C` [Example 519, 6,7-Difluoro-8-(6-fluoro-1-methylsulfonyl-1H-indazol-4-yl)-1,4,4-trimethyl-9-(trifluoromethyl)-5H-[1,2,4]triazolo[4,3-a]quinoxaline], the IC50 or EC50 (antagonist or agonist mode, not stated per compound) lay in the range of 100 to 1000 nM.
The figure for `COc1c(-c2cc(F)cc3c(C)c[nH]c23)cc(F)c2c1-n1c(C3CC3)nnc1C(C)(C)N2` [Example 62, 1-Cyclopropyl-6-fluoro-8-(5-fluoro-3-methyl-1H-indol-7-yl)-9-methoxy-4,4-dimethyl-5H-[1,2,4]triazolo[4,3-a]quinoxaline] is 100 to 1000 nM.
Consider `Cc1c(-c2cccc3c2ccn3S(=O)(=O)CC2CC2)cc(F)c2c1-n1c(C)nnc1C(C)(C)N2` [Example 491, 8-[1-(Cyclopropyl-methylsulfonyl)-1H-indol-4-yl]-6-fluoro-1,4,4,9-tetramethyl-5H-[1,2,4]triazolo[4,3-a]quinoxaline], for which the IC50 or EC50 (antagonist or agonist mode, not stated per compound) was below 100 nM.
For `COc1c(-c2cc(F)cc3c(C4CC4)c[nH]c23)cc(F)c2c1-n1c(C)nnc1C(C)(C)N2` [Example 478, 8-(3-Cyclopropyl-5-fluoro-1H-indol-7-yl)-6-fluoro-9-methoxy-1,4,4-trimethyl-5H-[1,2,4]triazolo[4,3-a]quinoxaline], the IC50 or EC50 (antagonist or agonist mode, not stated per compound) was below 100 nM.
Consider `COc1c(-c2ccc(F)c3[nH]ncc23)cc(F)c2c1-n1c(C)nnc1C(C)(C)N2` [Example 489, 6-Fluoro-8-(7-fluoro-1H-indazol-4-yl)-9-methoxy-1,4,4-trimethyl-5H-[1,2,4]triazolo[4,3-a]quinoxaline], for which the IC50 or EC50 (antagonist or agonist mode, not stated per compound) is 100 to 1000 nM.
Turning to `COc1c(-c2cc(F)cc3c2ccn3S(C)(=O)=O)cc(F)c2c1-n1c(C3CC3)nnc1C(C)(C)N2` [Example 59, 1-Cyclopropyl-6-fluoro-8-(6-fluoro-1-methylsulfonyl-1H-indol-4-yl)-9-methoxy-4,4-dimethyl-5H-[1,2,4]triazolo[4,3-a]quinoxaline], the IC50 or EC50 (antagonist or agonist mode, not stated per compound) lay in the range of 1000 to 15000 nM.
Then `COc1c(-c2cc(F)cc3c2ccn3S(C)(=O)=O)cc(Cl)c2c1-n1c(C)nnc1C(C)(C)N2` [Example 483, 6-chloro-8-(6-fluoro-1-(methylsulfonyl)-1H-indol-4-yl)-9-methoxy-1,4,4-trimethyl-4,5-dihydro-[1,2,4]triazolo[4,3-a]quinoxaline], with below 100 nM; and `COc1c(-c2cc(F)cc3c2ccn3CCO)cc(F)c2c1-n1c(C3CC3)nnc1C(C)(C)N2` [Example 61, 2-[4-(1-Cyclopropyl-6-fluoro-9-methoxy-4,4-dimethyl-5H-[1,2,4]triazolo[4,3-a]quinoxalin-8-yl)-6-fluoro-1H-indol-1-yl]-EtOH], with 1000 to 15000 nM.
The figure for `Cc1c(-c2cccc3c2ccn3S(C)(=O)=O)cc(F)c2c1-n1c(C3CC3)nnc1C(C)(C)N2` [Example 64, 1-Cyclopropyl-6-fluoro-4,4,9-trimethyl-8-(1-methylsulfonyl-1H-indol-4-yl)-5H-[1,2,4]triazolo[4,3-a]quinoxaline] is 1000 to 15000 nM; for `CNc1c(-c2cc(F)cc3c2ccn3CCO)cc(F)c2c1-n1c(C)nnc1C(C)(C)N2` [Example 480, 2-[6-Fluoro-4-(6-fluoro-1,4,4-trimethyl-9-methylamino-5H-[1,2,4]triazolo[4,3-a]quinoxalin-8-yl)-1H-indol-1-yl]-EtOH] it is 100 to 1000 nM.
With `Cc1c(-c2cc(F)cc3c2ccn3S(C)(=O)=O)cc(Cl)c2c1-n1c(C)nnc1C(C)(C)N2` [Example 457, 6-Chloro-8-(6-fluoro-1-methylsulfonyl-1H-indol-4-yl)-1,4,4,9-tetramethyl-5H-[1,2,4]triazolo[4,3-a]quinoxaline], the IC50 or EC50 (antagonist or agonist mode, not stated per compound) is below 100 nM.
For `Cc1c(-c2ccc(F)c3[nH]ccc23)cc(F)c2c1-n1c(C)nnc1C(C)(C)N2` [Example 490, 6-fluoro-8-(7-fluoro-1H-indol-4-yl)-1,4,4,9-tetramethyl-4,5-dihydro-[1,2,4]triazolo[4,3-a]quinoxaline], the IC50 or EC50 (antagonist or agonist mode, not stated per compound) was 100 to 1000 nM.
Consider `Cc1c(-c2cc(F)cc3c2cnn3S(C)(=O)=O)c(Cl)c(F)c2c1-n1c(C)nnc1C(C)(C)N2` [Example 525, 7-Chloro-6-fluoro-8-(6-fluoro-1-methylsulfonyl-1H-indazol-4-yl)-1,4,4,9-tetramethyl-5H-[1,2,4]triazolo[4,3-a]quinoxaline], for which the IC50 or EC50 (antagonist or agonist mode, not stated per compound) was below 100 nM.
With `Cc1c(-c2ccc(F)c3[nH]ncc23)cc(F)c2c1-n1c(C)nnc1C(C)(C)N2` [Example 517, 6-Fluoro-8-(7-fluoro-1H-indazol-4-yl)-1,4,4,9-tetramethyl-5H-[1,2,4]triazolo[4,3-a]quinoxaline], the IC50 or EC50 (antagonist or agonist mode, not stated per compound) lay in the range of 100 to 1000 nM.
As to `CCS(=O)(=O)n1ccc2c(-c3cc(F)c4c(c3C(F)F)-n3c(C)nnc3C(C)(C)N4)cccc21` [Example 461, 9-(Difluoro-methyl)-8-[1-(ethylsulfonyl)-1H-indol-4-yl]-6-fluoro-1,4,4-trimethyl-5H-[1,2,4]triazolo[4,3-a]quinoxaline], the IC50 or EC50 (antagonist or agonist mode, not stated per compound) was 100 to 1000 nM.
As for `Cc1c(-c2cc(F)cc3c(C)c[nH]c23)cc(Cl)c2c1-n1c(C)nnc1C(C)(C)N2` [Example 454, 6-Chloro-8-(5-fluoro-3-methyl-1H-indol-7-yl)-1,4,4,9-tetramethyl-5H-[1,2,4]triazolo[4,3-a]quinoxaline], the IC50 or EC50 (antagonist or agonist mode, not stated per compound) is below 100 nM.
As for `Cc1c(-c2cc(C#N)cc3[nH]ccc23)cc(F)c2c1-n1c(C)nnc1C(C)(C)N2` [Example 477, 4-(6-Fluoro-1,4,4,9-tetramethyl-5H-[1,2,4]triazolo[4,3-a]quinoxalin-8-yl)-1H-indole-6-carbonitrile], the IC50 or EC50 (antagonist or agonist mode, not stated per compound) lay within 100 to 1000 nM.
On to `Cc1c(-c2cc(F)cc3c2ccn3CCO)cc(Cl)c2c1-n1c(C)nnc1C(C)(C)N2` [Example 463, 2-[4-(6-Chloro-1,4,4,9-tetramethyl-5H-[1,2,4]triazolo[4,3-a]quinoxalin-8-yl)-6-fluoro-1H-indol-1-yl]-EtOH], for which the IC50 or EC50 (antagonist or agonist mode, not stated per compound) is below 100 nM.
The figure for `COc1c(-c2cccc3c2ccn3C2CC2)cc(F)c2c1-n1c(C)nnc1C(C)(C)N2` [Example 511, 8-(1-Cyclopropyl-1H-indol-4-yl)-6-fluoro-9-methoxy-1,4,4-trimethyl-5H-[1,2,4]triazolo[4,3-a]quinoxaline] is 100 to 1000 nM.

(Values after patent US11981677B2, “Further substituted triazolo quinoxaline derivatives” (Grünenthal GmbH, priority 2018, dated 2024).)
